Test results taken from article PMC8286348 (Biochemical and biophysical research communications, 2021).
Read-outs that look alike come from different tables or passages of the source.

Assays:
[1] = compared to 1; cited from earlier work
[2] = biological target: PR^S17; assay: Kinetic inhibition; assay type: biochemical, HIV-1; conditions: read-out: Ki for PR^S17; FRET-substrate (BACHEM H-2992), 37°C, pH 5.6
[3] = tested on: PR dimerization; conditions: relative to 1; cited from earlier work
[4] = biological target: HIV-1 protease (PR); conditions: cited from earlier work
[5] = tested on: HIV-1; conditions: read-out: antiviral IC50; MTT assay; cited from earlier work
[6] = biological target: PR^S17; conditions: read-out: Ki for PR^S17; clinical inhibitors; cited from earlier work

Row | Compound | CNS penetration in vitro [1] | Ki [2] [nM] | fold better inhibition of PR dimerization than 1 [3] | Ki [4] [nM] | IC50 [5] [nM] | Ki [6] [nM]
1 | CC(C)CN(C[C@@H](O)[C@H](Cc1cc(F)cc(F)c1)NC(=O)O[C@H]1C2COC3OCC1C3C2)S(=O)(=O)c1ccc2nc(NC3CC3)sc2c1 (stereo partly shown) [Compound 3, GRL-142] | better CNS penetration in vitro compared to 1 | 17 ± 1.3 | around 1000 fold | – | – | –
2 | GRL-4410 [Compound 2] | – | 15.8 ± 4.8 | – | 0.0029 | 2.4 | –
3 | CC(C)CN(C[C@@H](O)[C@H](Cc1ccccc1)NC(=O)O[C@H]1CCOC1)S(=O)(=O)c1ccc(N)cc1 [amprenavir] | – | – | – | – | – | 11
